The source made the active and inactive calls.
Experiments:
[1] = test system: HeLa; test: HeLa cell cytotoxicity, dose response, cytotoxicity control, 24 h, cherry-picked samples (AID 504726); assay type: functional, cell-based; details: Homo sapiens;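 also: potency for cytotoxicity as loss of luminescence signal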
[2] = molecular target: Melanin-concentrating hormone receptor 1 (Homo sapiens, UniProt Q99705); test: Fluorescence-based counterscreen for antagonists of the G-protein coupled receptor 7 (GPR7): cell-based high throughput dose response assay to identify antagonists of the melanin-concentrating hormone receptor 1 (MCHR1).; assay type: functional
Chain of Melanin-concentrating hormone receptor 1 (Q99705 whole entry): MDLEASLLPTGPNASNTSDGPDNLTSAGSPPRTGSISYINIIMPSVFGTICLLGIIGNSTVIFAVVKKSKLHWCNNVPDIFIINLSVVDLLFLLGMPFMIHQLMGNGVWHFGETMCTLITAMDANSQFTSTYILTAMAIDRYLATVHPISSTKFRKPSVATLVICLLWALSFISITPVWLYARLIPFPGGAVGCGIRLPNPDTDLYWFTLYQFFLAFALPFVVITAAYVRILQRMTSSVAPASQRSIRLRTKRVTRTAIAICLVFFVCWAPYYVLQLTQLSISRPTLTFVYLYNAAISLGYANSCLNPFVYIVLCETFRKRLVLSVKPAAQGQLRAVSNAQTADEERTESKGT

[3] = molecular target: T1, Neuropeptides B/W receptor type 1 (Homo sapiens, UniProt P48145); test: Fluorescence-based dose response cell-based high throughput screening assay to identify antagonists of the G-protein coupled receptor 7 (GPR7). [Related pubchem assays: 1952 (Screening assay (GPR7 antagonists).), 1880 (Summary AID.)]; assay type: functional
T1 sequence (P48145 whole entry): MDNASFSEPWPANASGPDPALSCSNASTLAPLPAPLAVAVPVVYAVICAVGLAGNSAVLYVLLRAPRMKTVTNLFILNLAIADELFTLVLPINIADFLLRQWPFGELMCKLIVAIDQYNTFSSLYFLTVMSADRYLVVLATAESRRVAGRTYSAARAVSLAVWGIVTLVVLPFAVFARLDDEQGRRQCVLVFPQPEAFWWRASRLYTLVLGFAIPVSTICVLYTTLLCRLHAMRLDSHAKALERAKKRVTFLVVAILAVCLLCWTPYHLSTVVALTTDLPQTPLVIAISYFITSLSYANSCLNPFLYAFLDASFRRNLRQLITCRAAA

[4] = Luminescence Cell-Based Dose Retest to Confirm Inhibitors of Cancer Stem Cells. [Related pubchem assays (depositor defined):AID2717, AID2721]; assay type: functional; details: Homo sapiens
[5] = growth suppression of beta-catenin-knockout colon cells, dose response, cell-based, HCT116, human colon tumor (AID 1045); assay type: functional;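 also: HCT116 colon tumor cells with beta catenin knocked out; cells exposed to compound for 60 hours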
[6] = growth suppression of PTEN-null colon cells, dose response, cell-based, HCT116 PTEN knockout (AID 1047); assay type: functional;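 also: HCT116 colon tumor cells with PTEN knocked out; cells exposed to compound for 60 hours before readout; potency for loss of cell viability measured by luminescence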
[7] = molecular target: X-box-binding protein 1 (Homo sapiens, UniProt P17861); assay type: functional, Cricetulus griseus;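 also: confirmatory dose-response counter-screen serving a CHOP assay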
Chain of X-box-binding protein 1 (P17861 whole entry): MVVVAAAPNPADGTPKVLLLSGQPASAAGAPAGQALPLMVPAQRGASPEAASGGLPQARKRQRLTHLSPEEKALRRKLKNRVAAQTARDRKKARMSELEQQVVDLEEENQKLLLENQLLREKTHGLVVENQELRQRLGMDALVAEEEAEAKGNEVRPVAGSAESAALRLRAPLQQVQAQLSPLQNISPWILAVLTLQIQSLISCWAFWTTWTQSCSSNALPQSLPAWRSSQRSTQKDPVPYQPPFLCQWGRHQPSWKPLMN

[8] = molecular target: CAAX prenyl protease 2 (Saccharomyces cerevisiae S288c, UniProt Q03530); assay type: biochemical
Chain of CAAX prenyl protease 2 (Q03530 whole entry, the tested form may be a part): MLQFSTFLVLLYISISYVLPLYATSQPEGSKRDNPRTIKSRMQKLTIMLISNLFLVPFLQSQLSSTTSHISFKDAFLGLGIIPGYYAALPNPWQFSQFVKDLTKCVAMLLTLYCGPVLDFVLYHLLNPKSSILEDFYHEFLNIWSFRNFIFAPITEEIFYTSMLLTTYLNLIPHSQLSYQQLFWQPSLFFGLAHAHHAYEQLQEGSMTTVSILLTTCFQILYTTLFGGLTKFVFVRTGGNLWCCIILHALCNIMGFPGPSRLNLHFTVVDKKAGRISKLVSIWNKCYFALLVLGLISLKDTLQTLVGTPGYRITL

[9] = molecular target: T2, Nucleotide-binding oligomerization domain-containing protein 1 (Homo sapiens, UniProt Q9Y239); test: NOD1 signaling inhibitors, SAR follow-up, revised (AID 2333); assay type: functional
T2 sequence (Q9Y239 whole entry): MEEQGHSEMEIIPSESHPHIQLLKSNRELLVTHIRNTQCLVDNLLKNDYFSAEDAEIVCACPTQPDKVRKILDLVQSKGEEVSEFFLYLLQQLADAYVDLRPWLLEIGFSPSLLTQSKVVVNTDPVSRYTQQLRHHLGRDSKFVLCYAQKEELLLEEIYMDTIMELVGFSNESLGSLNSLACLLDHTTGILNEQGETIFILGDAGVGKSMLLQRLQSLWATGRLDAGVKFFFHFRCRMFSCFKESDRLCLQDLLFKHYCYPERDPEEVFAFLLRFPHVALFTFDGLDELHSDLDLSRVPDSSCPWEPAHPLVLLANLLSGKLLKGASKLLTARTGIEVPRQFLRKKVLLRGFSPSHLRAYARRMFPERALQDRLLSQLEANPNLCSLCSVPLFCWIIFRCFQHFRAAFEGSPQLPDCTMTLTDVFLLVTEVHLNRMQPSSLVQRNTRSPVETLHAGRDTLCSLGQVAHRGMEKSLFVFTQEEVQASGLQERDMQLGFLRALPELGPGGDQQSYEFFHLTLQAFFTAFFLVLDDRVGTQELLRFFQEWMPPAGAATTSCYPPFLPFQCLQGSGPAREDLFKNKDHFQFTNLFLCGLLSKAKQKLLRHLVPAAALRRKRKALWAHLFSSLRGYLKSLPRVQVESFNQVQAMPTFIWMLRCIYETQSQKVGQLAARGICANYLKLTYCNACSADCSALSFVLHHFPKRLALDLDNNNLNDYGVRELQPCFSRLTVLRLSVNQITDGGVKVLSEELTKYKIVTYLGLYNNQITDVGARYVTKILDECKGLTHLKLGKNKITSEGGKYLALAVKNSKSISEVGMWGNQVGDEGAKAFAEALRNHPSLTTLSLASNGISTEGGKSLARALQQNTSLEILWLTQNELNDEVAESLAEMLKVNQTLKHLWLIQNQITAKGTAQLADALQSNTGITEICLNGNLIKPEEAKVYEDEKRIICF

[10] = cells
[11] = HEp-2 cell cytotoxicity, dose response, cytotoxicity control for RSV inhibitor project, HTS (AID 2410); assay type: functional; details: human respiratory syncytial virus
[12] = molecular target: Tumor necrosis factor (Homo sapiens, UniProt P01375); test: TNFa-triggered NF-kB activation inhibitors, SAR follow-up, cell-based, revised (AID 2337); assay type: functional
Chain of Tumor necrosis factor (P01375 whole entry, the tested form may be a part): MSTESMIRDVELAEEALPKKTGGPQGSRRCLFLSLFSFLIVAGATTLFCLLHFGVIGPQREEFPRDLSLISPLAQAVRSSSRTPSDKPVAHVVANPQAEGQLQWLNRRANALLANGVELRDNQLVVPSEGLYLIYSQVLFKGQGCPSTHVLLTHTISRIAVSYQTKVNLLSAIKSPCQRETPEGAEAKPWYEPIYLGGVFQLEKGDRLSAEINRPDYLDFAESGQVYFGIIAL

[13] = molecular target: Nucleotide-binding oligomerization domain-containing protein 2 (Homo sapiens, UniProt Q9HC29); test: PubChem AID 2334; assay type: functional
Chain of Nucleotide-binding oligomerization domain-containing protein 2 (Q9HC29 whole entry, the tested form may be a part): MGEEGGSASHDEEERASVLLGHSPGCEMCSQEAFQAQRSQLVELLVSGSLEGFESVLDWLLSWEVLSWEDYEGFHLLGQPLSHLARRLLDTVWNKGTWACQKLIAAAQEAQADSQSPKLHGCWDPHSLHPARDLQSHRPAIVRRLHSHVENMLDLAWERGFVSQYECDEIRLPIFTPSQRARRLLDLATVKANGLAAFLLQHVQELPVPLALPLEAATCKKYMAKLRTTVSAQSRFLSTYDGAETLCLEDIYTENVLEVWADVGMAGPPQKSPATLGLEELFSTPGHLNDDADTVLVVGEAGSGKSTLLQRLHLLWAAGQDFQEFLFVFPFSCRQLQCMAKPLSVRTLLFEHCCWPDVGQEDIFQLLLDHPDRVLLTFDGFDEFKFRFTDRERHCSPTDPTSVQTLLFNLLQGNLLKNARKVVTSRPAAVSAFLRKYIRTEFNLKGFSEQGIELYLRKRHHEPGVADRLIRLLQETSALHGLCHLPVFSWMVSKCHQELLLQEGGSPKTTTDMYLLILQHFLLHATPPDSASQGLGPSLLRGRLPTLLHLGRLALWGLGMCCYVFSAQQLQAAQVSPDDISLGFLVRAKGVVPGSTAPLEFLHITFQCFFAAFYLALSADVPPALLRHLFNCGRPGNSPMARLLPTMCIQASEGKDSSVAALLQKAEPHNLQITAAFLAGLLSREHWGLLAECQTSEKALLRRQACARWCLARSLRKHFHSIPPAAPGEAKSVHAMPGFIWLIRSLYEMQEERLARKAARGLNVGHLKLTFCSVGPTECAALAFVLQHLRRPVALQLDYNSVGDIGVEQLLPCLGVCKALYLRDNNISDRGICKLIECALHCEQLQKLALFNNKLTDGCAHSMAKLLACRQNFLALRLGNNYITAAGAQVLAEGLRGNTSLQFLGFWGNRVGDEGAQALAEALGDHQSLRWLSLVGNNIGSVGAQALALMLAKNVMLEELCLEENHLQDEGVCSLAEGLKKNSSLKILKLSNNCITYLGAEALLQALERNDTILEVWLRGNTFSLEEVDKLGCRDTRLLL

[14] = test system: HEK293; test: cells; details: Homo sapiens
[15] = molecular target: T3, Phosphomannomutase 2 (Homo sapiens, UniProt O15305); test: Counter screen SAR assay for PMM2 inhibitors via a fluorescence intensity assay. [Related pubchem assays (depositor defined):AID1545, AID1574]
T3 sequence (O15305 whole entry): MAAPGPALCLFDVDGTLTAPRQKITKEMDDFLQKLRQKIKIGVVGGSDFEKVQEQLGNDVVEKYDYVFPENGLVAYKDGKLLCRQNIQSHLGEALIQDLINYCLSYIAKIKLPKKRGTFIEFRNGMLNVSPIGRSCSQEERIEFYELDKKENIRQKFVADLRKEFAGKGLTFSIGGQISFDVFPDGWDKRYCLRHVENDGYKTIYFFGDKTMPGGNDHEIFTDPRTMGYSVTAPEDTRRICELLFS

[16] = molecular target: T4, Mannose-6-phosphate isomerase (Homo sapiens, UniProt P34949); test: PMI enzyme inhibitors, confirmation, biochemical, fluorescence intensity (AID 1535)
T4 sequence (P34949 whole entry): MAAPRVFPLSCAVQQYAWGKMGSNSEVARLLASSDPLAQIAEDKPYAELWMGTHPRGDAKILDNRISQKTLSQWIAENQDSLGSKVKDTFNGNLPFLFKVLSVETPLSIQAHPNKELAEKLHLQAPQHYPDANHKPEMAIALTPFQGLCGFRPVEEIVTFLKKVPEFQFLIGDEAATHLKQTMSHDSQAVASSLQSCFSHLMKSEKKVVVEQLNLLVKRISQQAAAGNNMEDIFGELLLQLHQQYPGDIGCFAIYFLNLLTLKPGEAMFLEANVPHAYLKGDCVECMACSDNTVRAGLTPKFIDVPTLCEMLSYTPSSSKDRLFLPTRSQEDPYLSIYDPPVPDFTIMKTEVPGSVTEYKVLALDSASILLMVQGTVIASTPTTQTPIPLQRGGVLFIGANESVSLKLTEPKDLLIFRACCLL

[17] = molecular target: Phosphoethanolamine/phosphocholine phosphatase (Homo sapiens, UniProt Q8TCT1); test: SAR assay for compounds that inhibit PHOSPHO1. [Related pubchem assays (depositor defined):AID1545, AID1565, AID1574]
Chain of Phosphoethanolamine/phosphocholine phosphatase (Q8TCT1 whole entry): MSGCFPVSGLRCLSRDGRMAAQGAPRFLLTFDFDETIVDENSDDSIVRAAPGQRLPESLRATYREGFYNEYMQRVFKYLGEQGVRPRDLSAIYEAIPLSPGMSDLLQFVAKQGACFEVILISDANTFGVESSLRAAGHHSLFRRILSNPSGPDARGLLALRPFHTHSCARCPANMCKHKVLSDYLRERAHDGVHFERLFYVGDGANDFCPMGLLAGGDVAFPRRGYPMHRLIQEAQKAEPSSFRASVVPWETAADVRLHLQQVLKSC

[18] = molecular target: T5, Neuropeptide Y receptor type 2 (Homo sapiens, UniProt P49146); test: Fluorescence counterscreen for potentiators or agonists of NPY-Y1: Cell-based high-throughput dose response assay for potentiators or agonists of NPY-Y2.; assay type: functional
T5 sequence (P49146 whole entry): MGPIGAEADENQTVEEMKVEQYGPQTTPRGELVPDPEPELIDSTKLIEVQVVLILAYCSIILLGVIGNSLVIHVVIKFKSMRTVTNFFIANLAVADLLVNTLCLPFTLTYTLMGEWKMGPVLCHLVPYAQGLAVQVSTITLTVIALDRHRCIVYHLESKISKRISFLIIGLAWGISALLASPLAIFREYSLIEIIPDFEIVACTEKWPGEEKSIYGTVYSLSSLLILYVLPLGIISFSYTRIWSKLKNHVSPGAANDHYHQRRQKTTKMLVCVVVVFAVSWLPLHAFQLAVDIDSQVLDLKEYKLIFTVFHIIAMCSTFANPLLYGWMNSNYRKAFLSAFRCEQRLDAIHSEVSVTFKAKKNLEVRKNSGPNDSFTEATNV

[19] = test system: HEK293; test: Fluorescence-based counterscreen for potentiators or agonists of NPY-Y1: cell-based high-throughput dose response assay for inhibitors of cyclic nucleotide gated ion channel (CNGC) activity. In this assay, the parental HEK293 cell line transfected with a cyclic-nucleotide gated ion channel (CNGC)-based cAMP sensor is used to measure inhibition of isoproterenol-induced CNGC …; assay type: functional; details: Homo sapiens
[20] = test system: Streptococcus; test: Group A Streptococcus viability loss, dose response, counter-screen for streptokinase expression inhibitor project, luminescence, BacTiterGlo (AID 1915); assay type: functional, organism-based;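 also: potency for reduction of bacterial viability or growth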
[21] = test system: Streptococcus sp. 'group A'; test: growth inhibition of control SK(-) GAS strain, dose response, counter-screen for streptokinase expression inhibitor project, luminescence, kanamycin, BacTiterGlo, confirmation (AID 1900); assay type: functional, organism-based
[22] = molecular target: T6, Neuropeptide Y receptor type 1 (Homo sapiens, UniProt P25929); test: Fluorescence-based dose response cell-based high-throughput screening assay for potentiators or agonists of NPY-Y1.; assay type: functional
T6 sequence (P25929 whole entry): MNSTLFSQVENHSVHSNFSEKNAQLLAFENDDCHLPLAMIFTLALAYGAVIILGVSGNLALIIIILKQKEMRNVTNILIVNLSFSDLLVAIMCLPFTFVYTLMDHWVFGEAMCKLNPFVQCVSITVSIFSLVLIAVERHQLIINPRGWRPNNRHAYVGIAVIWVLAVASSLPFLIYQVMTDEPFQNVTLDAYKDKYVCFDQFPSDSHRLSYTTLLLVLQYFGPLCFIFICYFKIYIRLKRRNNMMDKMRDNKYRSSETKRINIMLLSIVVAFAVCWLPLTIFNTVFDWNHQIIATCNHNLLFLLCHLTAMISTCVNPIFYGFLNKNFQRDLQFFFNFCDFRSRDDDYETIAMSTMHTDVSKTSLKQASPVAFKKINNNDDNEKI

[23] = M. tuberculosis H37Rv growth inhibitors, H37Rv strain (AID 1626); assay type: functional
[24] = molecular target: T7, Streptokinase A (Streptococcus pyogenes serotype M1, UniProt P10520); test: S. pyogenes streptokinase expression inhibitors, potency, dose response, plasminogen activation absorbance, OD405 (AID 1914); assay type: functional, Streptococcus pyogenes M1 GAS;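 also: secreted streptokinase activity via plasminogen activation per viability signal from cell pellet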
T7 sequence (P10520 whole entry): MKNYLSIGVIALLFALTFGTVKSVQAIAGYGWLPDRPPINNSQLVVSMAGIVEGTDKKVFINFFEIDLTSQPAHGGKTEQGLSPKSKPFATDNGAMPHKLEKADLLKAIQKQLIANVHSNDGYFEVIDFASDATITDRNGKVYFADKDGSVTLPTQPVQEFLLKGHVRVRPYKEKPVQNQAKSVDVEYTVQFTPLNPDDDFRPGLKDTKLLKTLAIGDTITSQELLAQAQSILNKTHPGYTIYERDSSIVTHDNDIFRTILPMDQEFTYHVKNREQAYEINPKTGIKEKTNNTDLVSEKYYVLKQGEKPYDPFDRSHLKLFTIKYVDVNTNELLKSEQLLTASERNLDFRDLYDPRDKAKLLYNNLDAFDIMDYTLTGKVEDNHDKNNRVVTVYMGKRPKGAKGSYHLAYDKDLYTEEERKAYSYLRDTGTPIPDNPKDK

[25] = molecular target: T5, Neuropeptide Y receptor type 2; test: Fluorescence-based counterscreen for agonists of NPY-Y1: cell-based high-throughput dose response assay for agonists of NPY-Y2.; assay type: functional

O=C(/C=C/c1ccco1)Nc1ccccc1C(=O)Nc1cccc(C(=O)O)c1
AC50 [1]: 180 µM (active)

COc1ccc(OC)c(NS(=O)(=O)c2c(C(=O)N3CCCCCC3)c(C)n(C)c2C)c1
IC50 [2]: > 43.8 µM (not active)
IC50 [3]: > 43.8 µM (not active)

Cc1ccc(NC(S)=NC(NC(=O)Cc2cccc3ccccc23)C(Cl)(Cl)Cl)cc1 (stereo not given)
AC50 [4]: 2.18 µM (active)
EC50 [5]: 18.3 µM (active)
EC50 [6]: 13.1 µM (active)
Absolute IC50 (XBP1) [7]: 10 µM

N=c1c(C(=O)NCCc2ccccc2)cc2c(=O)n3ccccc3nc2n1CC1CCCO1 (stereo not given)
IC50 [2]: 158 µM (not active)
IC50 [3]: > 43.8 µM (not active)

CN(C)CCNC(=O)c1cccn(Cc2cc(C(F)(F)F)cc(C(F)(F)F)c2)c1=O
AC50 [8]: > 100 µM (inactive)

O=C(CCc1ccccc1)Nc1sc2c(c1C(=O)O)CCCC2
IC50 [9]: > 20 µM (inactive)
AC50 [4]: 28.3 µM (active)
IC50 [10]: 39.6 µM (active)
CC50 [11]: 42.7 µM (active)
IC50 [12]: > 20 µM (inactive)
IC50 [13]: > 20 µM (inactive)
IC50 [14]: > 20 µM (inactive)

Cn1nc(-c2ccc(Cl)cc2)cc1C(=O)NC1CCCc2c1cnn2-c1ccccc1F (stereo not given)
IC50 [9]: 1.92 µM (active)
IC50 [12]: 2.72 µM (active)
IC50 [13]: 1.72 µM (active)
IC50 [14]: > 20 µM (inactive)

O=c1c2c([N+](=O)[O-])cc([N+](=O)[O-])cc2sn1-c1ccc(F)cc1
IC50 [15]: 2.46 µM (active)
IC50 [16]: 0.709 µM (active)
IC50 [17]: 0.1 µM (active)

O=c1c2c([N+](=O)[O-])cc([N+](=O)[O-])cc2sn1-c1ccccc1F
IC50 [15]: 4.22 µM (active)
IC50 [16]: 1.45 µM (active)
IC50 [17]: 0.0233 µM (active)

Clc1ccc(-n2c(-c3cccc(Br)c3)nc3nc4ccccc4nc32)cc1
EC50 [18]: 12 µM (not active)
IC50 [19]: 5.7 µM (active)
EC50 [20]: 79.4 µM (active)
EC50 [21]: 1.58 µM (active)
EC50 [22]: 10.1 µM (not active)
IC50 [23]: > 100 µM (active)
EC50 [24]: > 150 µM (not active)
EC50 [25]: 2.98 µM (active)

From ChEMBL document CHEMBL1201862, “PubChem BioAssay data set” (2004)
